Source: ChEMBL document CHEMBL1136793, “First dual aromatase-steroid sulfatase inhibitors” (J Med Chem, 2003)
The source made the active and inactive calls. The calls are words filed in the database; no cut-off is given here.

How the values were obtained:
[1] = molecular target: T1, Steryl-sulfatase (Homo sapiens) (UniProt P08842); conditions: JEG-3, 1 uM
T1 sequence (whole entry): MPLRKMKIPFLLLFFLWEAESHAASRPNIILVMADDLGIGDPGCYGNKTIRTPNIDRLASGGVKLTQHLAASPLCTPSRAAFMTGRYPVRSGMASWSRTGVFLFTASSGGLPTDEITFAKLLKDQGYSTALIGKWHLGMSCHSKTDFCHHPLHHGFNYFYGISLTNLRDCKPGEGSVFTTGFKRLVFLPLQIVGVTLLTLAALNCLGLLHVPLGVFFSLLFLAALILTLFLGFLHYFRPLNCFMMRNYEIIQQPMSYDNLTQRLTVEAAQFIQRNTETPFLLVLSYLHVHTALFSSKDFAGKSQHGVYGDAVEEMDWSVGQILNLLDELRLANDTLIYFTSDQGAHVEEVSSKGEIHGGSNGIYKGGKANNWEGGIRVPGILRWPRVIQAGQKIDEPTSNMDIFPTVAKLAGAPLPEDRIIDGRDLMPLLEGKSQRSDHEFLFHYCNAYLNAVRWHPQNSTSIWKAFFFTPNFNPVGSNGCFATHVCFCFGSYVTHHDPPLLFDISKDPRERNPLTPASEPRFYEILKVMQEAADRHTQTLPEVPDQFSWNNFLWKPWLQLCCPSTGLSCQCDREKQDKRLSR

Aromatase [2] = molecular target: T2, Aromatase (Homo sapiens, UniProt P11511); test: Percent reduction in aromatase P450 19A1 binding inhibition after JEG-3 cell pretreatment at 1 uM (from 86.5+/-1.4% to 23+/-1%); type: cell-based; conditions: jeg-3, 1 µM
T2 sequence (P11511 whole entry): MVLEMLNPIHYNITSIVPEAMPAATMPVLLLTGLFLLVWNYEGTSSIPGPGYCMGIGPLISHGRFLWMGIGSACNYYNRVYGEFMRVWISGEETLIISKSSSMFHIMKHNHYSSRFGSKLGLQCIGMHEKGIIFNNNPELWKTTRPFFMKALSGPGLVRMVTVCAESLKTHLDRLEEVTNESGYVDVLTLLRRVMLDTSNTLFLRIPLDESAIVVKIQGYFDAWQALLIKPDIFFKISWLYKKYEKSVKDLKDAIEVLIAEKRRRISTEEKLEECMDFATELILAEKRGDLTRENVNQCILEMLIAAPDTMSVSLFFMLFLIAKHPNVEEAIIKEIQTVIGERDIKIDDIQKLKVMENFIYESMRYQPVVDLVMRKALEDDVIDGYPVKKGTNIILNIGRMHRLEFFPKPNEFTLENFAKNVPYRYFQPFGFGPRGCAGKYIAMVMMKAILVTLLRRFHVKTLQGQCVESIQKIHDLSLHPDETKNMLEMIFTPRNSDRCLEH

[3] = molecular target: T1, Steryl-sulfatase (Homo sapiens); conditions: 3.3 nM
Description: In vitro inhibition of [6,7-3H]E1S binding to steroid sulfatase in JEG-3 human placental carcinoma cells at 3.3 nM

[4] = molecular target: T1, Steryl-sulfatase (Homo sapiens); test: In vitro inhibition of [6,7-3H]E1S binding to steroid sulfatase in JEG-3 human placental carcinoma cells; Not active
Aromatase [5] = molecular target: T2, Aromatase
Description: In vitro inhibition of [1-beta-3H]-androstenedione binding to Cytochrome P450 19A1 of JEG-3 human placental carcinoma cells

N#Cc1ccc(N(Cc2ccc(OS(N)(=O)=O)cc2)n2cnnc2)cc1 was tested, and the NS [1] was “inactive” and the Reduction (Aromatase [2]) was 63.5%.
Compound NS(=O)(=O)Oc1ccc2c3c(c(=O)oc2c1)CCCCC3 has an inhibition [3] of 50%.
In the case of N#Cc1ccc(N(Cc2ccc(Br)cc2)n2cnnc2)cc1, the NA [4] is reported as “inactive” and the IC50 (Aromatase [5]) is reported as 0.5 nM.
